Experiments:
Experiment in all cases: relative viability (nuclei count vs DMSO), 5 days (fraction); higher = more cells survive
[1] = tested on: NCI-H661
How it was run: (§1)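 A single step with final 0.05% Triton X-100, 1% formaldehyde and 1 ug/ml Hoechst fixed the cells and stained nuclei 5 days after treatment. Lung cancer cell lines in 1536-well plates had been treated by pin tool the day after seeding with one drug alone or a fixed anchor-drug dose plus five library-drug doses (not always all listed) in √10 steps, and nuclei were counted on 4× images. Relative viability is the ratio of nuclei in treated wells to nuclei in vehicle wells, taken as the median of duplicate plates.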

[2] = tested on: PC-14
How it was run: as §1

[3] = tested on: ChaGo-K-1
How it was run: as §1

[4] = tested on: RERF-LC-KJ
How it was run: as §1

[5] = tested on: NCI-H23
How it was run: as §1

[6] = tested on: NCI-H2126
How it was run: as §1

[7] = tested on: LCLC-97TM1
How it was run: as §1

[8] = tested on: HCC-78
How it was run: as §1

[9] = tested on: NCI-H647
How it was run: as §1

[10] = tested on: NCI-H2347
How it was run: as §1

[11] = tested on: NCI-H1666
How it was run: as §1

[12] = tested on: NCI-H2405
How it was run: as §1

[13] = tested on: EPLC-272H
How it was run: as §1

[14] = tested on: HCC-827
How it was run: as §1

[15] = tested on: NCI-H1915
How it was run: as §1

[16] = tested on: NCI-H522
How it was run: as §1

[17] = tested on: NCI-H520
How it was run: as §1

[18] = tested on: NCI-H650
How it was run: as §1

[19] = tested on: H3255
How it was run: as §1

[20] = tested on: 201T
How it was run: as §1

[21] = tested on: NCI-H322M
How it was run: as §1

[22] = tested on: COR-L 105
How it was run: as §1

[23] = tested on: LC-2-ad
How it was run: as §1

[24] = tested on: NCI-H2087
How it was run: as §1

Work on `C[C@@H]1CN(CC(=O)Nc2ccc3c(c2)Cc2cccc(-c4cc(=O)cc(N5CCOCC5)o4)c2S3)C[C@H](C)O1` + N=C(N)NC(=N)NCCc1ccccc1 [Phenformin] (partner 250 µM) yielded a relative viability ([1]; first compound 0.04 µM) of 0.261, a relative viability ([1]; first compound 0.1265 µM) of 0.274 and a relative viability ([1]; first compound 0.4 µM) of 0.262. It also gave a relative viability ([1]; first compound 4 µM) of 0.317, a relative viability ([2]; first compound 0.04 µM) of 0.377 and a relative viability ([2]; first compound 0.1265 µM) of 0.528. It also gave a relative viability ([2]; first compound 0.4 µM) of 0.556, a relative viability ([2]; first compound 4 µM) of 0.574 and a relative viability ([3]; first compound 0.04 µM) of 0.48. It also gave a relative viability ([3]; first compound 0.1265 µM) of 0.45, a relative viability ([3]; first compound 0.4 µM) of 0.474 and a relative viability ([3]; first compound 4 µM) of 0.411. It also gave a relative viability ([4]; first compound 0.04 µM) of 0.422, a relative viability ([4]; first compound 0.1265 µM) of 0.368 and a relative viability ([4]; first compound 0.4 µM) of 0.379. For the same compound, the relative viability ([4]; first compound 4 µM) was 0.323, the relative viability ([5]; first compound 0.04 µM) was 0.719 and the relative viability ([5]; first compound 0.1265 µM) was 0.762. It also gave a relative viability ([5]; first compound 0.4 µM) of 0.803, a relative viability ([5]; first compound 4 µM) of 0.733 and a relative viability ([6]; first compound 0.04 µM) of 0.573. The relative viability ([6]; first compound 0.1265 µM) was 0.528, the relative viability ([6]; first compound 0.4 µM) was 0.531 and the relative viability ([6]; first compound 4 µM) was 0.454. For the same compound, the relative viability ([7]; first compound 0.04 µM) was 0.354, the relative viability ([7]; first compound 0.1265 µM) was 0.469 and the relative viability ([7]; first compound 0.4 µM) was 0.433. For the same compound, the relative viability ([7]; first compound 4 µM) was 0.483, the relative viability ([8]; first compound 0.04 µM) was 0.656 and the relative viability ([8]; first compound 0.1265 µM) was 0.661. It also gave a relative viability ([8]; first compound 0.4 µM) of 0.658, a relative viability ([8]; first compound 4 µM) of 0.619 and a relative viability ([9]; first compound 0.04 µM) of 0.472. It also gave a relative viability ([9]; first compound 0.1265 µM) of 0.456, a relative viability ([9]; first compound 0.4 µM) of 0.606 and a relative viability ([9]; first compound 4 µM) of 0.504. For the same compound, the relative viability ([10]; first compound 0.04 µM) was 0.412, the relative viability ([10]; first compound 0.1265 µM) was 0.547 and the relative viability ([10]; first compound 0.4 µM) was 0.368. It also gave a relative viability ([10]; first compound 4 µM) of 0.449, a relative viability ([11]; first compound 0.04 µM) of 0.57 and a relative viability ([11]; first compound 0.1265 µM) of 0.553. It also gave a relative viability ([11]; first compound 0.4 µM) of 0.58, a relative viability ([11]; first compound 4 µM) of 0.554 and a relative viability ([12]; first compound 0.04 µM) of 0.402. For the same compound, the relative viability ([12]; first compound 0.1265 µM) was 0.411, the relative viability ([12]; first compound 0.4 µM) was 0.379 and the relative viability ([12]; first compound 4 µM) was 0.487. It also gave a relative viability ([13]; first compound 0.04 µM) of 0.278, a relative viability ([13]; first compound 0.1265 µM) of 0.274 and a relative viability ([13]; first compound 0.4 µM) of 0.307. It also gave a relative viability ([13]; first compound 4 µM) of 0.271, a relative viability ([14]; first compound 0.04 µM) of 0.429 and a relative viability ([14]; first compound 0.1265 µM) of 0.402. It also gave a relative viability ([14]; first compound 0.4 µM) of 0.401, a relative viability ([14]; first compound 4 µM) of 0.415 and a relative viability ([15]; first compound 0.04 µM) of 0.379. It also gave a relative viability ([15]; first compound 0.1265 µM) of 0.388, a relative viability ([15]; first compound 0.4 µM) of 0.382 and a relative viability ([15]; first compound 4 µM) of 0.362. For the same compound, the relative viability ([16]; first compound 0.04 µM) was 0.72, the relative viability ([16]; first compound 0.1265 µM) was 0.718 and the relative viability ([16]; first compound 0.4 µM) was 0.635. For the same compound, the relative viability ([16]; first compound 4 µM) was 0.608, the relative viability ([17]; first compound 0.04 µM) was 0.464 and the relative viability ([17]; first compound 0.1265 µM) was 0.732. It also gave a relative viability ([17]; first compound 0.4 µM) of 0.312, a relative viability ([17]; first compound 4 µM) of 0.452 and a relative viability ([18]; first compound 0.04 µM) of 0.417. The relative viability ([18]; first compound 0.1265 µM) was 0.436, the relative viability ([18]; first compound 0.4 µM) was 0.436 and the relative viability ([18]; first compound 4 µM) was 0.33. For the same compound, the relative viability ([19]; first compound 0.04 µM) was 0.388, the relative viability ([19]; first compound 0.1265 µM) was 0.364 and the relative viability ([19]; first compound 0.4 µM) was 0.319. It also gave a relative viability ([19]; first compound 4 µM) of 0.367, a relative viability ([20]; first compound 0.04 µM) of 0.439 and a relative viability ([20]; first compound 0.1265 µM) of 0.423. For the same compound, the relative viability ([20]; first compound 0.4 µM) was 0.477, the relative viability ([20]; first compound 4 µM) was 0.517 and the relative viability ([21]; first compound 0.04 µM) was 0.701. It also gave a relative viability ([21]; first compound 0.1265 µM) of 0.74, a relative viability ([21]; first compound 0.4 µM) of 0.729 and a relative viability ([21]; first compound 4 µM) of 0.691. It also gave a relative viability ([22]; first compound 0.04 µM) of 0.503, a relative viability ([22]; first compound 0.1265 µM) of 0.444 and a relative viability ([22]; first compound 0.4 µM) of 0.552. It also gave a relative viability ([22]; first compound 4 µM) of 0.468, a relative viability ([23]; first compound 0.04 µM) of 0.695 and a relative viability ([23]; first compound 0.1265 µM) of 0.593. For the same compound, the relative viability ([23]; first compound 0.4 µM) was 0.587, the relative viability ([23]; first compound 4 µM) was 0.662 and the relative viability ([24]; first compound 0.04 µM) was 0.458. The relative viability ([24]; first compound 0.1265 µM) was 0.451, the relative viability ([24]; first compound 0.4 µM) was 0.444 and the relative viability ([24]; first compound 4 µM) was 0.437.

Source: the supplement of paper PMC10307832
